One series is described as follows: in vitro. The following applies: human, uninfected MT-4 cells, CC50 (nM), same protocol as Test A, CellTiter-Glo. Here is the method:
For the antiviral assay, 40 μL of 1× test concentration of 3-fold serially diluted compound in culture medium with 10% FBS was added to each well of a 384-well plate (10 concentrations) in quadruplicate. MT-4 cells were next mixed with HIV-IIIb at an m.o.i of 0.003 for 1 hour, after which time 35 μL of virus/cell mixture (2000 cells) was immediately added to each well containing 40 μL of diluted compound. The plates were then incubated at 37° C. for 5 days. After 5 days of incubation, 25 μl of 2× concentrated CellTiter-Glo™ Reagent (catalog #G7571, Promega Biosciences, Inc., Madison, Wis.) was added to each well containing MT-4 cells. Cell lysis was carried out by incubating at room temperature for 10 min and then chemiluminescence was read.
Test B: Cytotoxicity Assay
Compound cytotoxicity and the corresponding CC50 values was determined using the same protocol as described in the antiviral assay (Test A) except that uninfected cells were used.
A general note: In ATP-based viability assays light output follows the ATP content of the culture.

For a further series, the system named is HIV-IIIb. As to the kind of experiment: Test A: Antiviral assay in MT4 cells. The following applies: Human immunodeficiency virus 1, IIIB, MT4, 120 h, read-out: % inhibition at 2 μM, percent inhibition of virus-induced cell killing, from dose response curve at 2 uM drug; MT-4 cells infected with HIV-IIIb, 5 days, CellTiter-Glo. Type of series: cell-based, HIV-1.

Where only a bound is given, the exact number is not on record here.

As a reminder, the CC50 is the concentration at which the toxic effect on the cells reaches its halfway point. The inhibition is the relative decrease from the control value, in per cent.

As to `N#Cc1cccc(-c2cccnc2[C@H](Cc2cc(F)cc(F)c2)NC(=O)Cc2c[nH]c3ccc(O)cc23)c1` [Example 38E, (S)—N-(1-(3-(3-cyanophenyl)pyridin-2-yl)-2-(3,5-difluorophenyl)ethyl)-2-(5-hydroxy-1H-indol-3-yl)acetamide], half-maximal cytotoxicity in the series “in vitro” (CC50 at 5 days) was put at 28600 nM. The inhibition at 2 µM in the series on HIV-IIIb came out at 86%.
As for `NC(=O)c1cc(-c2cccnc2[C@H](Cc2cc(F)cc(F)c2)NC(=O)Cc2c[nH]c3ccc(O)cc23)ccc1Cl` [Example 40, (S)-2-chloro-5-(2-(2-(3,5-difluorophenyl)-1-(2-(5-hydroxy-1H-indol-3-yl)acetamido)ethyl)pyridin-3-yl)benzamide], the CC50 at 5 days in “in vitro” is greater than 48900 nM. Also, the inhibition at 2 µM with HIV-IIIb was found to be 99%.
Take `NC(=O)c1cc(-c2cccnc2[C@H](Cc2cc(F)cc(F)c2)NC(=O)Cc2c[nH]c3ccc(O)cc23)ccc1F` [Example 41, (S)-5-(2-(2-(3,5-difluorophenyl)-1-(2-(5-hydroxy-1H-indol-3-yl)acetamido)ethyl)pyridin-3-yl)-2-fluorobenzamide]: the CC50 at 5 days in the series “in vitro” is greater than 53000 nM. Besides, the inhibition at 2 µM in the series on HIV-IIIb was determined as 97%.
The compound `NC(=O)c1ccc(-c2cccnc2[C@H](Cc2cc(F)cc(F)c2)NC(=O)Cc2c[nH]c3ccc(O)cc23)cc1` [Example 42, (S)-4-(2-(2-(3,5-difluorophenyl)-1-(2-(5-hydroxy-1H-indol-3-yl)acetamido)ethyl)pyridin-3-yl)benzamide] gave a CC50 at 5 days in “in vitro” greater than 53000 nM. Besides, the inhibition at 2 µM in the series with HIV-IIIb turned out to be 96%.
In turn, `NS(=O)(=O)c1ccc(-c2cccnc2[C@H](Cc2cc(F)cc(F)c2)NC(=O)Cc2c[nH]c3ccc(O)cc23)cc1` [Example 43, (S)—N-(2-(3,5-difluorophenyl)-1-(3-(4-sulfamoylphenyl)pyridin-2-yl)ethyl)-2-(5-hydroxy-1H-indol-3-yl)acetamide] showed a CC50 at 5 days in the series “in vitro” greater than 53000 nM. Besides, the inhibition at 2 µM in the series on HIV-IIIb is 28%.
On the same counts, the results for `NS(=O)(=O)c1cccc(-c2cccnc2[C@H](Cc2cc(F)cc(F)c2)NC(=O)Cc2c[nH]c3ccc(O)cc23)c1` [Example 44, (S)—N-(2-(3,5-difluorophenyl)-1-(3-(3-sulfamoylphenyl)pyridin-2-yl)ethyl)-2-(5-hydroxy-1H-indol-3-yl)acetamide] are greater than 52500 nM and 96%.
With `CNC(=O)c1ccc(-c2cccnc2[C@H](Cc2cc(F)cc(F)c2)NC(=O)Cc2c[nH]c3ccc(O)cc23)cc1` [Example 45, (S)-4-(2-(2-(3,5-difluorophenyl)-1-(2-(5-hydroxy-1H-indol-3-yl)acetamido)ethyl)pyridin-3-yl)-N-methylbenzamide], the CC50 at 5 days in “in vitro” was greater than 53000 nM. In addition, in the series with HIV-IIIb, the inhibition at 2 µM is 32%.
In the series “in vitro”, `CNC(=O)c1cccc(-c2cccnc2[C@H](Cc2cc(F)cc(F)c2)NC(=O)Cc2c[nH]c3ccc(O)cc23)c1` [Example 46, (S)-3-(2-(2-(3,5-difluorophenyl)-1-(2-(5-hydroxy-1H-indol-3-yl)acetamido)ethyl)pyridin-3-yl)-N-methylbenzamide] registered a CC50 at 5 days greater than 53000 nM. For the same compound, in the series on HIV-IIIb, the inhibition at 2 µM was found to be 87%.
`CN(C)C(=O)c1ccc(-c2cccnc2[C@H](Cc2cc(F)cc(F)c2)NC(=O)Cc2c[nH]c3ccc(O)cc23)cc1` [Example 47, (S)-4-(2-(2-(3,5-difluorophenyl)-1-(2-(5-hydroxy-1H-indol-3-yl)acetamido)ethyl)pyridin-3-yl)-N,N-dimethylbenzamide]: the CC50 at 5 days in “in vitro” was greater than 53000 nM. Further, the inhibition at 2 µM in the series with HIV-IIIb was found to be 59%.
In turn, `CN(C)C(=O)c1cccc(-c2cccnc2[C@H](Cc2cc(F)cc(F)c2)NC(=O)Cc2c[nH]c3ccc(O)cc23)c1` [Example 48, (S)-3-(2-(2-(3,5-difluorophenyl)-1-(2-(5-hydroxy-1H-indol-3-yl)acetamido)ethyl)pyridin-3-yl)-N,N-dimethylbenzamide] displayed a CC50 at 5 days in “in vitro” greater than 53000 nM. The inhibition at 2 µM in the series on HIV-IIIb was 74%.
`O=C(Cc1c[nH]c2ccc(O)cc12)N[C@@H](Cc1cc(F)cc(F)c1)c1ncccc1-c1cccc(-c2nnn[nH]2)c1` [Example 49] returned a CC50 at 5 days in “in vitro” of 562 nM. The inhibition at 2 µM in the series with HIV-IIIb worked out at 0%.
With `NC(=O)c1cccc(-c2cccnc2[C@H](Cc2cc(F)cc(F)c2)NC(=O)Cc2c[nH]c3ccc(=O)[nH]c23)c1` [Example 51, (S)-3-(2-(2-(3,5-difluorophenyl)-1-(2-(5-oxo-4,5-dihydro-1H-pyrrolo[3,2-b]pyridin-3-yl)acetamido)ethyl)pyridin-3-yl)benzamide], in “in vitro”, the CC50 at 5 days is greater than 53000 nM. Moreover, the inhibition at 2 µM in the series on HIV-IIIb turned out to be 52%.
Turning to `CC1CCCc2c(C(F)(F)F)nn(CC(=O)N[C@@H](Cc3cc(F)cc(F)c3)c3ncccc3-c3cccc(C(N)=O)c3)c21` (stereo partly drawn) [Example 52, 3-(2-((1S)-2-(3,5-difluorophenyl)-1-(2-(7-methyl-3-(trifluoromethyl)-4,5,6,7-tetrahydro-1H-indazol-1-yl)acetamido)ethyl)pyridin-3-yl)benzamide], the midpoint of cytotoxicity in the series “in vitro”, the CC50 at 5 days, lay at 13300 nM. For the same compound, in the series on HIV-IIIb, the inhibition at 2 µM is 92%.
With `O=C(Cc1c[nH]c2ccc(O)cc12)N[C@@H](Cc1cc(F)cc(F)c1)c1ncccc1C#CC1CC1` [Example 53, (S)—N-(1-(3-(cyclopropylethynyl)pyridin-2-yl)-2-(3,5-difluorophenyl)ethyl)-2-(5-hydroxy-1H-indol-3-yl)acetamide], in the series “in vitro”, the CC50 at 5 days worked out at 28300 nM. The inhibition at 2 µM in the series on HIV-IIIb stood at 33%.
Turning to `NC(=O)c1cc(-c2cccnc2[C@H](Cc2cc(F)cc(F)c2)NC(=O)Cc2c[nH]c3ccc(C(F)(F)F)cc23)ccc1F` [Example 54G, (S)-5-(2-(2-(3,5-difluorophenyl)-1-(2-(5-(trifluoromethyl)-1H-indol-3-yl)acetamido)ethyl)pyridin-3-yl)-2-fluorobenzamide], the CC50 at 5 days in “in vitro” amounted to 10300 nM. Moreover, the inhibition at 2 µM with HIV-IIIb came to 111%.
In “in vitro”, `NC(=O)c1cc(-c2cccnc2[C@H](Cc2cc(F)cc(F)c2)NC(=O)Cc2c[nH]c3ccc(F)cc23)ccc1F` [Example 55F, (S)-5-(2-(2-(3,5-difluorophenyl)-1-(2-(5-fluoro-1H-indol-3-yl)acetamido)ethyl)pyridin-3-yl)-2-fluorobenzamide] showed a CC50 at 5 days of 21600 nM. In addition, the inhibition at 2 µM in the series on HIV-IIIb amounted to 101%.
Turning to `NC(=O)c1cc(-c2cccnc2[C@H](Cc2cc(F)cc(F)c2)NC(=O)Cn2ccc3ccc4ccccc4c32)ccc1F` [Example 56B, (S)-5-(2-(1-(2-(1H-benzo[g]indol-1-yl)acetamido)-2-(3,5-difluorophenyl)ethyl)pyridin-3-yl)-2-fluorobenzamide], the half-maximal cytotoxic concentration (CC50) at 5 days in “in vitro” amounted to 18900 nM. Further, the inhibition at 2 µM in the series with HIV-IIIb worked out at 4%.
Taken in the same sequence, the figures for `CS(=O)(=O)c1cccc(-c2cccnc2[C@H](Cc2cc(F)cc(F)c2)NC(=O)Cn2nc(C(F)(F)F)c3c2CCCC3)c1` [Example 57B, (S)—N-(2-(3,5-difluorophenyl)-1-(3-(3-(methylsulfonyl)phenyl)pyridin-2-yl)ethyl)-2-(3-(trifluoromethyl)-4,5,6,7-tetrahydro-1H-indazol-1-yl)acetamide] were 13300 nM and 98%.
As for `CCc1c(Br)c(C(F)(F)F)nn1CC(=O)N[C@@H](Cc1cc(F)cc(F)c1)c1ncccc1-c1ccc(F)c(C(N)=O)c1` [Example 58D, (S)-5-(2-(1-(2-(4-bromo-5-ethyl-3-(trifluoromethyl)-1H-pyrazol-1-yl)acetamido)-2-(3,5-difluorophenyl)ethyl)pyridin-3-yl)-2-fluorobenzamide], the CC50 at 5 days in “in vitro” came to 10000 nM. In the series with HIV-IIIb, the inhibition at 2 µM stood at 14%.
On the same counts, the results for `Cc1cc(C)c2c(c1)NC(=O)C2CC(=O)N[C@@H](Cc1cccc(F)c1)c1ncccc1-c1ccc(F)c(C(N)=O)c1` (stereo partly drawn) [Example 59E, 5-(2-((1S)-1-(2-(4,6-dimethyl-2-oxoindolin-3-yl)acetamido)-2-(3-fluorophenyl)ethyl)pyridin-3-yl)-2-fluorobenzamide] are 45100 nM and 75%.
With `O=C(Cn1nc(C(F)(F)F)cc1C1CC1)N[C@@H](Cc1cc(F)cc(F)c1)c1ncccc1-c1cnc2[nH]ccc2c1` [Example 61F, (S)—N-(1-(3-(1H-pyrrolo[2,3-b]pyridin-5-yl)pyridin-2-yl)-2-(3,5-difluorophenyl)ethyl)-2-(5-cyclopropyl-3-(trifluoromethyl)-1H-pyrazol-1-yl)acetamide], it took 17900 nM to reach half-maximal cytotoxicity in the series “in vitro” (CC50 at 5 days). Further, the inhibition at 2 µM in the series with HIV-IIIb amounted to 74%.
Turning to `O=C(Cn1nc(C(F)(F)F)c2c1CCCC2)N[C@@H](Cc1cc(F)cc(F)c1)c1ncccc1-c1cccc(C(=O)NC2CC2)c1` [Example 62, (S)—N-cyclopropyl-3-(2-(2-(3,5-difluorophenyl)-1-(2-(3-(trifluoromethyl)-4,5,6,7-tetrahydro-1H-indazol-1-yl)acetamido)ethyl)pyridin-3-yl)benzamide], the midpoint of cytotoxicity in the series “in vitro”, the CC50 at 5 days, lay at 9980 nM. For the same compound, the inhibition at 2 µM in the series on HIV-IIIb was 80%.
Taken in the same sequence, the figures for `CNC(=O)c1cc(F)cc(-c2cccnc2[C@H](Cc2cc(F)cc(F)c2)NC(=O)Cc2c[nH]c3ccc(F)cc23)c1` [Example 63, (S)-3-(2-(2-(3,5-difluorophenyl)-1-(2-(5-fluoro-1H-indol-3-yl)acetamido)ethyl)pyridin-3-yl)-5-fluoro-N-methylbenzamide] were 14800 nM and 22%.
